Measurements as given in paper PMC12446476 (Nature Communications, 2025).
In brackets after ≈: the same amount, converted by molar mass. Like-named read-outs stand apart in the source and are kept apart here.

Tested on: non-gonococcal Neisseria
Test: MIC determination for non-gonococcal Neisseria, agar dilution
Type: cell-based, Neisseria species
Conditions: read-out: Minimum inhibitory concentration
Excerpt: The 2024 WHO N. gonorrhoeae reference strains were used for quality control. Only whole MIC doubling dilutions are reported. Clinical breakpoints or the epidemiological cutoff (ECOFF, to indicate azithromycin resistance) from EUCAST (v14.0, https://www.eucast.org/clinical_breakpoints) were used to classify isolates as antimicrobial susceptible or resistant. […] Two times the standard inoculum defined by CLSI was used to establish consistent growth in untreated control samples for some strains. In vitro time-kill assays were performed according to CLSI guidelines[65] using Columbia Broth (BD Difco) supplemented with 1% IsoVitaleX Enrichment (BD). Viable bacterial counts were generated by plating 10-fold serially diluted samples on GC agar plates containing 1% IsoVitaleX Enrichment (BD).

Work on `Cc1c(CN(C)C(=O)/C=C/c2cnc3c(c2)N[C@H](C)[C@H](O)C(=O)N3)oc2ccccc12` [Debio 1453] yielded an MIC (Neisseria animalis 1, Consensus) of 0.25 µg/mL (≈ 0.595 µM), an MIC (Neisseria animalis 1, Replicate 1) of 0.25 µg/mL (≈ 0.595 µM) and an MIC (Neisseria animalis 1, Replicate 2) of 0.25 µg/mL (≈ 0.595 µM). The MIC (Neisseria animalis 1, Replicate 3) was 0.25 µg/mL (≈ 0.595 µM), the MIC (Neisseria cinerea 1, Consensus) was 0.032 µg/mL (≈ 0.0761 µM) and the MIC (Neisseria cinerea 1, Replicate 1) was 0.032 µg/mL (≈ 0.0761 µM). It also gave an MIC (Neisseria cinerea 1, Replicate 2) of 0.032 µg/mL (≈ 0.0761 µM), an MIC (Neisseria cinerea 1, Replicate 3) of 0.032 µg/mL (≈ 0.0761 µM) and an MIC (Neisseria cinerea 2, Consensus) of 0.25 µg/mL (≈ 0.595 µM). For the same molecule, the MIC (Neisseria cinerea 2, Replicate 1) was 0.25 µg/mL (≈ 0.595 µM), the MIC (Neisseria cinerea 2, Replicate 2) was 0.25 µg/mL (≈ 0.595 µM) and the MIC (Neisseria cinerea 2, Replicate 3) was 0.25 µg/mL (≈ 0.595 µM). The MIC (Neisseria cinerea 3, Consensus) was 0.008 µg/mL (≈ 0.019 µM), the MIC (Neisseria cinerea 3, Replicate 1) was 0.008 µg/mL (≈ 0.019 µM) and the MIC (Neisseria cinerea 3, Replicate 2) was 0.016 µg/mL (≈ 0.0381 µM). For the same molecule, the MIC (Neisseria cinerea 3, Replicate 3) was 0.008 µg/mL (≈ 0.019 µM), the MIC (Neisseria cinerea 6, Consensus) was 0.016 µg/mL (≈ 0.0381 µM) and the MIC (Neisseria cinerea 6, Replicate 1) was 0.032 µg/mL (≈ 0.0761 µM). It also gave an MIC (Neisseria cinerea 6, Replicate 2) of 0.016 µg/mL (≈ 0.0381 µM), an MIC (Neisseria cinerea 6, Replicate 3) of 0.016 µg/mL (≈ 0.0381 µM) and an MIC (Neisseria cinerea 7, Consensus) of 0.5 µg/mL (≈ 1.19 µM). The MIC (Neisseria cinerea 7, Replicate 1) was 0.5 µg/mL (≈ 1.19 µM), the MIC (Neisseria cinerea 7, Replicate 2) was 0.5 µg/mL (≈ 1.19 µM) and the MIC (Neisseria cinerea 7, Replicate 3) was 0.5 µg/mL (≈ 1.19 µM). The MIC (Neisseria cinerea 8, Replicate 1) was 0.25 µg/mL (≈ 0.595 µM), the MIC (Neisseria cinerea 9, Consensus) was 0.5 µg/mL (≈ 1.19 µM) and the MIC (Neisseria cinerea 9, Replicate 1) was 0.5 µg/mL (≈ 1.19 µM). The MIC (Neisseria cinerea 9, Replicate 2) was 0.5 µg/mL (≈ 1.19 µM), the MIC (Neisseria cinerea 9, Replicate 3) was 0.5 µg/mL (≈ 1.19 µM) and the MIC (Neisseria elongata 2, Consensus) was 2 µg/mL (≈ 4.76 µM). It also gave an MIC (Neisseria elongata 2, Replicate 1) of 2 µg/mL (≈ 4.76 µM), an MIC (Neisseria elongata 2, Replicate 2) of 2 µg/mL (≈ 4.76 µM) and an MIC (Neisseria elongata 2, Replicate 3) of 2 µg/mL (≈ 4.76 µM). It also gave an MIC (Neisseria elongata 3, Consensus) of 1 µg/mL (≈ 2.38 µM), an MIC (Neisseria elongata 3, Replicate 1) of 1 µg/mL (≈ 2.38 µM) and an MIC (Neisseria elongata 3, Replicate 2) of 1 µg/mL (≈ 2.38 µM). The MIC (Neisseria elongata 3, Replicate 3) was 1 µg/mL (≈ 2.38 µM), the MIC (Neisseria flava 1, Replicate 2) was 0.064 µg/mL (≈ 0.152 µM) and the MIC (Neisseria flavescens 1, Consensus) was 0.016 µg/mL (≈ 0.0381 µM). For the same molecule, the MIC (Neisseria flavescens 1, Replicate 1) was 0.032 µg/mL (≈ 0.0761 µM), the MIC (Neisseria flavescens 1, Replicate 2) was 0.016 µg/mL (≈ 0.0381 µM) and the MIC (Neisseria flavescens 1, Replicate 3) was 0.016 µg/mL (≈ 0.0381 µM). The MIC (Neisseria flavescens 2, Replicate 2) was 0.25 µg/mL (≈ 0.595 µM), the MIC (Neisseria flavescens 3, Consensus) was 0.25 µg/mL (≈ 0.595 µM) and the MIC (Neisseria flavescens 3, Replicate 1) was 0.25 µg/mL (≈ 0.595 µM). The MIC (Neisseria flavescens 3, Replicate 2) was 0.25 µg/mL (≈ 0.595 µM), the MIC (Neisseria flavescens 3, Replicate 3) was 0.25 µg/mL (≈ 0.595 µM) and the MIC (Neisseria flavescens 4, Consensus) was 0.5 µg/mL (≈ 1.19 µM). It also gave an MIC (Neisseria flavescens 4, Replicate 1) of 0.25 µg/mL (≈ 0.595 µM), an MIC (Neisseria flavescens 4, Replicate 2) of 0.5 µg/mL (≈ 1.19 µM) and an MIC (Neisseria flavescens 4, Replicate 3) of 0.5 µg/mL (≈ 1.19 µM). The MIC (Neisseria flavescens 5, Consensus) was 0.5 µg/mL (≈ 1.19 µM), the MIC (Neisseria flavescens 5, Replicate 1) was 0.25 µg/mL (≈ 0.595 µM) and the MIC (Neisseria flavescens 5, Replicate 2) was 1 µg/mL (≈ 2.38 µM). The MIC (Neisseria flavescens 5, Replicate 3) was 0.5 µg/mL (≈ 1.19 µM), the MIC (Neisseria flavescens 6, Consensus) was 0.064 µg/mL (≈ 0.152 µM) and the MIC (Neisseria flavescens 6, Replicate 1) was 0.064 µg/mL (≈ 0.152 µM). For the same molecule, the MIC (Neisseria flavescens 6, Replicate 2) was 0.064 µg/mL (≈ 0.152 µM), the MIC (Neisseria flavescens 6, Replicate 3) was 0.064 µg/mL (≈ 0.152 µM) and the MIC (Neisseria flavescens 7, Consensus) was 0.5 µg/mL (≈ 1.19 µM). It also gave an MIC (Neisseria flavescens 7, Replicate 1) of 0.5 µg/mL (≈ 1.19 µM), an MIC (Neisseria flavescens 7, Replicate 2) of 0.5 µg/mL (≈ 1.19 µM) and an MIC (Neisseria flavescens 7, Replicate 3) of 1 µg/mL (≈ 2.38 µM). The MIC (Neisseria flavescens 8, Replicate 1) was 0.064 µg/mL (≈ 0.152 µM), the MIC (Neisseria flavescens 9, Consensus) was 1 µg/mL (≈ 2.38 µM) and the MIC (Neisseria flavescens 9, Replicate 1) was 1 µg/mL (≈ 2.38 µM). It also gave an MIC (Neisseria flavescens 9, Replicate 2) of 1 µg/mL (≈ 2.38 µM), an MIC (Neisseria flavescens 9, Replicate 3) of 1 µg/mL (≈ 2.38 µM) and an MIC (Neisseria flavescens 10, Replicate 2) of 0.25 µg/mL (≈ 0.595 µM). The MIC (Neisseria flavescens 11, Consensus) was 0.5 µg/mL (≈ 1.19 µM), the MIC (Neisseria flavescens 11, Replicate 1) was 0.5 µg/mL (≈ 1.19 µM) and the MIC (Neisseria flavescens 11, Replicate 2) was 1 µg/mL (≈ 2.38 µM). The MIC (Neisseria flavescens 11, Replicate 3) was 0.5 µg/mL (≈ 1.19 µM), the MIC (Neisseria flavescens 12, Consensus) was 0.064 µg/mL (≈ 0.152 µM) and the MIC (Neisseria flavescens 12, Replicate 1) was 0.064 µg/mL (≈ 0.152 µM). It also gave an MIC (Neisseria flavescens 12, Replicate 2) of 0.064 µg/mL (≈ 0.152 µM), an MIC (Neisseria flavescens 13, Consensus) of 1 µg/mL (≈ 2.38 µM) and an MIC (Neisseria flavescens 13, Replicate 1) of 1 µg/mL (≈ 2.38 µM). For the same molecule, the MIC (Neisseria flavescens 13, Replicate 2) was 1 µg/mL (≈ 2.38 µM), the MIC (Neisseria flavescens 13, Replicate 3) was 1 µg/mL (≈ 2.38 µM) and the MIC (Neisseria flavescens 14, Consensus) was 1 µg/mL (≈ 2.38 µM). For the same molecule, the MIC (Neisseria flavescens 14, Replicate 1) was 1 µg/mL (≈ 2.38 µM), the MIC (Neisseria flavescens 14, Replicate 2) was 1 µg/mL (≈ 2.38 µM) and the MIC (Neisseria flavescens 14, Replicate 3) was 1 µg/mL (≈ 2.38 µM). For the same molecule, the MIC (Neisseria flavescens 15, Consensus) was 1 µg/mL (≈ 2.38 µM), the MIC (Neisseria flavescens 15, Replicate 1) was 1 µg/mL (≈ 2.38 µM) and the MIC (Neisseria flavescens 15, Replicate 2) was 1 µg/mL (≈ 2.38 µM). The MIC (Neisseria flavescens 15, Replicate 3) was 1 µg/mL (≈ 2.38 µM), the MIC (Neisseria flavescens 16, Consensus) was 0.25 µg/mL (≈ 0.595 µM) and the MIC (Neisseria flavescens 16, Replicate 1) was 0.25 µg/mL (≈ 0.595 µM). The MIC (Neisseria flavescens 16, Replicate 2) was 0.25 µg/mL (≈ 0.595 µM), the MIC (Neisseria flavescens 16, Replicate 3) was 0.25 µg/mL (≈ 0.595 µM) and the MIC (Neisseria flavescens 17, Consensus) was 1 µg/mL (≈ 2.38 µM). For the same molecule, the MIC (Neisseria flavescens 17, Replicate 1) was 1 µg/mL (≈ 2.38 µM), the MIC (Neisseria flavescens 17, Replicate 2) was 0.5 µg/mL (≈ 1.19 µM) and the MIC (Neisseria flavescens 17, Replicate 3) was 1 µg/mL (≈ 2.38 µM). It also gave an MIC (Neisseria gonorrhoeae subspecies kochii 1, Consensus) of 0.016 µg/mL (≈ 0.0381 µM), an MIC (Neisseria gonorrhoeae subspecies kochii 1, Replicate 1) of 0.032 µg/mL (≈ 0.0761 µM) and an MIC (Neisseria gonorrhoeae subspecies kochii 1, Replicate 2) of 0.016 µg/mL (≈ 0.0381 µM). It also gave an MIC (Neisseria gonorrhoeae subspecies kochii 1, Replicate 3) of 0.016 µg/mL (≈ 0.0381 µM), an MIC (Neisseria gonorrhoeae subspecies kochii 2, Consensus) of 0.008 µg/mL (≈ 0.019 µM) and an MIC (Neisseria gonorrhoeae subspecies kochii 2, Replicate 1) of 0.008 µg/mL (≈ 0.019 µM). It also gave an MIC (Neisseria gonorrhoeae subspecies kochii 2, Replicate 2) of 0.008 µg/mL (≈ 0.019 µM), an MIC (Neisseria gonorrhoeae subspecies kochii 2, Replicate 3) of 0.008 µg/mL (≈ 0.019 µM) and an MIC (Neisseria gonorrhoeae subspecies kochii 3, Consensus) of 0.008 µg/mL (≈ 0.019 µM). It also gave an MIC (Neisseria gonorrhoeae subspecies kochii 3, Replicate 1) of 0.008 µg/mL (≈ 0.019 µM), an MIC (Neisseria gonorrhoeae subspecies kochii 3, Replicate 2) of 0.008 µg/mL (≈ 0.019 µM) and an MIC (Neisseria gonorrhoeae subspecies kochii 3, Replicate 3) of 0.008 µg/mL (≈ 0.019 µM). The MIC (Neisseria lactamica 1, Consensus) was 0.032 µg/mL (≈ 0.0761 µM), the MIC (Neisseria lactamica 1, Replicate 1) was 0.032 µg/mL (≈ 0.0761 µM) and the MIC (Neisseria lactamica 1, Replicate 2) was 0.064 µg/mL (≈ 0.152 µM).
